Measurements as given in patent publication US10125139B2, “Pesticidally active polycyclic derivatives with sulfur substituted five-membered ring heterocycles” (Syngenta Participations AG, priority 2015, dated 2018).

Experiments:
Format in all cases: in vivo
[1] = test system: Plutella xylostella (Diamond Back Moth); assay: Example B8: Plutella xylostella, artificial diet, L2 larvae; details: for percent effect (mortality or growth inhibition) at 200 ppm: Plutella xylostella, 120 h, application rate of 200 ppm, 5 days after infestation, L2 larvae, read-out: effect in at least one of the two categories (mortality or growth inhibition)
Description: Example B8: Plutella xylostella (Diamond Back Moth)
(§1) 24-well microtiter plates with artificial diet were treated with aqueous test solutions prepared from 10,000 ppm DMSO stock solutions by pipetting. After drying, the plates were infested with L2 larvae (10 to 15 per well). The samples were assessed for mortality and growth inhibition in comparison to untreated samples 5 days after infestation. The following compounds gave an effect of at least 80% in at least one of the two categories (mortality or growth inhibition) at an application rate of 200 ppm:
(§2) Insecticidal action against Diabrotica balteata (Corn root worm), Plutella xylostella (Diamond black moth), and Spodoptera littoralis (Egyptian cotton leaf worm). The tests were carried out as described in biological examples B2, B8 and B9, respectively, with the larval feeding/contact activity (mortality only) being reported as Breakpoint (BP80) values in parts per million (i.e. the lowest concentration which gives 80% larval mortality).

[2] = test system: Spodoptera littoralis (Egyptian Cotton Leaf Worm); assay: Example B9: Spodoptera littoralis, cotton leaf discs, L1 larvae; details: for percent control (mortality, anti-feedant effect or growth inhibition) at 200 ppm: Spodoptera littoralis, foliar, 72 h, application rate of 200 ppm, 3 days after infestation, L1 larvae
Description: Example B9: Spodoptera littoralis (Egyptian Cotton Leaf Worm)
Cotton leaf discs were placed onto agar in 24-well microtiter plates and sprayed with aqueous test solutions prepared from 10,000 ppm DMSO stock solutions. After drying the leaf discs were infested with five L1 larvae. The samples were assessed for mortality, anti-feeding effect, and growth inhibition in comparison to untreated samples 3 days after infestation. Control of Spodoptera littoralis by a test sample is given when at least one of the categories mortality, anti-feedant effect, and growth inhibition is higher than the untreated sample.
as §2

[3] = test system: Euschistus heros (Neotropical Brown Stink Bug); assay: Example B3: Euschistus heros, sprayed soybean leaves, N2 nymphs; details: 120 h, application rate of 200 ppm, 5 days after infestation, read-out: effect in at least one of the two categories (mortality or growth inhibition)
Description: Example B3: Euschistus heros (Neotropical Brown Stink Bug)
Soybean leaves on agar in 24-well microtiter plates were sprayed with aqueous test solutions prepared from 10,000 ppm DMSO stock solutions. After drying the leaves were infested with N2 nymphs. The samples were assessed for mortality and growth inhibition in comparison to untreated samples 5 days after infestation. The following compounds gave an effect of at least 80% in at least one of the two categories (mortality or growth inhibition) at an application rate of 200 ppm: […]

[4] = test system: Diabrotica balteata (Corn Root Worm); assay: Example B2: Diabrotica balteata, sprayed maize sprouts, L2 larvae; details: for percent effect (mortality or growth inhibition) at 200 ppm: Diabrotica balteata, 96 h, application rate of 200 ppm, 4 days after infestation, L2 larvae, read-out: effect in at least one of the two categories (mortality or growth inhibition)
Description: Example B2: Diabrotica balteata (Corn Root Worm)
as §1, with “Maize sprouts placed onto an agar layer in 24-well” for “24-well”, “plates” for “plates with artificial diet”, “spraying.” for “pipetting.”, “(6” for “(10”, “10” for “15”, “4” for “5”
as §2

[5] = test system: Myzus persicae (Green Peach Aphid); assay: Example B5: Myzus persicae feeding/contact activity, sunflower leaf discs; details: foliar, 144 h, application rate of 200 ppm, 6 days after infestation
Description: Example B5: Myzus persicae (Green Peach Aphid): Feeding/Contact Activity
Sunflower leaf discs were placed onto agar in a 24-well microtiter plate and sprayed with aqueous test solutions prepared from 10,000 ppm DMSO stock solutions. After drying, the leaf discs were infested with an aphid population of mixed ages. The samples were assessed for mortality 6 days after infestation.

SMILES	percent effect (mortality or growth inhibition) at 200 ppm [1] [%]	percent control (mortality, anti-feedant effect or growth inhibition) at 200 ppm [2] [%]	percent effect (mortality or growth inhibition) at 200 ppm [3] [%]	percent effect (mortality or growth inhibition) at 200 ppm [4] [%]	mortality at 200 ppm [5] [%]	BP80 (Breakpoint, lowest concentration which gives 80% larval mortality) Plutella xylostella ([1]; larval feeding/contact activity, mortality only, test as in B8) [ppm]	BP80 (Breakpoint, lowest concentration which gives 80% larval mortality) Diabrotica balteata ([4]; larval feeding/contact activity, mortality only, test as in B2) [ppm]	BP80 (Breakpoint, lowest concentration which gives 80% larval mortality) Spodoptera littoralis ([2]; larval feeding/contact activity, mortality only, test as in B9) [ppm]
CCS(=O)(=O)c1sc(-c2ccc(Cl)cc2)nc1-c1nc2cc(SC(F)(F)F)ncc2n1C [Example P-24]	≥ 80	≥ 80						
CCSc1c(-c2nc3cc(C(F)(F)F)ncc3n2C)sc(-c2ccc(Cl)cc2)c1Cl [Example P-7, 2-[4-chloro-5-(4-chlorophenyl)-3-ethylsulfanyl-2-thienyl]-3-methyl-6-(trifluoromethyl)imidazo[4,5-c]pyridine]	≥ 80	≥ 80	≥ 80	≥ 80				
CCSc1nc(Br)sc1-c1nc2cc(C(F)(F)F)ncc2n1C [Example I-5, 2-bromo-4-ethylsulfanyl-5-[3-methyl-6-(trifluoromethyl)imidazo[4,5-c]pyridin-2-yl]thiazole]					≥ 80			
CCS(=O)(=O)c1nc(Br)sc1-c1nc2cc(SC(F)(F)F)ncc2n1C [Example I-11]				≥ 80				
CCS(=O)(=O)c1sc(-n2ccc(C(F)(F)F)n2)nc1-c1nc2cc(C(F)(F)F)ncc2n1C [Example P-20, 5-ethylsulfonyl-4-[3-methyl-6-(trifluoromethyl)imidazo[4,5-c]pyridin-2-yl]-2-[3-(trifluoromethyl)pyrazol-1-yl]thiazole]	≥ 80	≥ 80	≥ 80	≥ 80				
CCS(=O)(=O)c1cc(-c2ncccn2)sc1-c1nc2cc(SC(F)(F)F)ncc2n1C [Example P-16, 2-(3-ethylsulfonyl-5-pyrimidin-2-yl-2-thienyl)-3-methyl-6-(trifluoromethylsulfanyl)imidazo[4,5-c]pyridine]	≥ 80	≥ 80	≥ 80	≥ 80				
CCS(=O)(=O)c1sc(C2CC2)nc1-c1nc2cc(C(F)(F)F)ncc2n1C [Example P-22, 2-cyclopropyl-5-ethylsulfonyl-4-[3-methyl-6-(trifluoromethyl)imidazo[4,5-c]pyridin-2-yl]thiazole]	≥ 80	≥ 80	≥ 80	≥ 80	≥ 80			
CCSc1sc(Br)nc1-c1nc2cc(SC(F)(F)F)ncc2n1C [Example I-10]	≥ 80							
CCS(=O)(=O)c1sc(-c2cc(F)cc(F)c2)nc1-c1nc2cc(SC(F)(F)F)ncc2n1C [Example P-26]	≥ 80	≥ 80		≥ 80				
CCS(=O)(=O)c1c(-c2nc3cc(C(F)(F)F)ncc3n2C)sc(-c2ccc(Cl)cc2)c1Cl [Example P-8, 2-[4-chloro-5-(4-chlorophenyl)-3-ethylsulfonyl-2-thienyl]-3-methyl-6-(trifluoromethyl)imidazo[4,5-c]pyridine]	≥ 80	≥ 80		≥ 80				
CCS(=O)(=O)c1sc(-c2ccc(Cl)cc2)nc1-c1nc2cc(C(F)(F)F)ncc2n1C [Example P-19, 2-(4-chlorophenyl)-5-ethylsulfonyl-4-[3-methyl-6-(trifluoromethyl)imidazo[4,5-c]pyridin-2-yl]thiazole]		≥ 80		≥ 80				
CCS(=O)(=O)c1cc(-n2ccc(C(F)(F)F)n2)sc1-c1nc2cc(C(F)(F)F)ncc2n1C [Example P-2, 2-[3-ethylsulfonyl-5-[3-(trifluoromethyl)pyrazol-1-yl]-2-thienyl]-3-methyl-6-(trifluoromethyl)imidazo[4,5-c]pyridine]	≥ 80	≥ 80	≥ 80	≥ 80	≥ 80			
CCSc1cc(-n2ccc(C(F)(F)F)n2)sc1-c1nc2cc(C(F)(F)F)ncc2n1C [Example P-3, 2-[3-ethylsulfanyl-5-[3-(trifluoromethyl)pyrazol-1-yl]-2-thienyl]-3-methyl-6-(trifluoromethyl)imidazo[4,5-c]pyridine]	≥ 80			≥ 80				
CCS(=O)(=O)c1sc(Br)nc1-c1nc2cc(C(F)(F)F)ncc2n1C [Example I-9, 2-bromo-5-ethylsulfonyl-4-[3-methyl-6-(trifluoromethyl)imidazo[4,5-c]pyridin-2-yl]thiazole]				≥ 80				
CCS(=O)(=O)c1cc(-n2ccc(C(F)(F)F)n2)sc1-c1nc2cc(C(F)(F)F)nnc2n1C [Example P-12, 6-[3-ethylsulfonyl-5-[3-(trifluoromethyl)pyrazol-1-yl]-2-thienyl]-7-methyl-3-(trifluoromethyl)imidazo[4,5-c]pyridazine]	≥ 80	≥ 80	≥ 80	≥ 80	≥ 80			
CCS(=O)(=O)c1sc(-c2ncccn2)nc1-c1nc2cc(C(F)(F)F)ncc2n1C [Example P-23, 5-ethylsulfonyl-4-[3-methyl-6-(trifluoromethyl)imidazo[4,5-c]pyridin-2-yl]-2-pyrimidin-2-yl-thiazole]	≥ 80	≥ 80		≥ 80				
CCS(=O)(=O)c1cc(I)sc1-c1nc2cc(SC(F)(F)F)ncc2n1C [Example I-8, 2-(3-ethylsulfonyl-5-iodo-2-thienyl)-3-methyl-6-(trifluoromethylsulfanyl)imidazo[4,5-c]pyridine]	≥ 80	≥ 80	≥ 80	≥ 80	≥ 80			
CCSc1sc(-n2ccc(C(F)(F)F)n2)nc1-c1nc2cc(C(F)(F)F)ncc2n1C [Example P-21, 5-ethylsulfanyl-4-[3-methyl-6-(trifluoromethyl)imidazo[4,5-c]pyridin-2-yl]-2-[3-(trifluoromethyl)pyrazol-1-yl]thiazole]				≥ 80				
CCS(=O)(=O)c1cc(C(F)(F)F)sc1-c1nc2cc(C(F)(F)F)ncc2n1C [Example V14.01, reference compound]						50	50	50
